Results from patent US20230011916A1, “METHODS OF CANCER TREATMENT USING ANTI-OX40 ANTIBODIES IN COMBINATION WITH PI3 KINASE DELTA INHIBITORS” (BEIGENE, LTD., priority 2019, published 2023).

Legend:
Type in all cases: in vivo, mouse
A20 cells = test: A20 syngeneic B cell lymphoma model in BALB/c mice; conditions: Compound 1 10 mg/kg p.o.
Experimental: A20 cells are of B cell lymphoma origin. Female BALB/c mice were subcutaneously implanted with 1×10^5 A20 cells in 150 μL PBS mice in the right flank. After inoculation, mice were randomized into 4 groups with 25 animals in each group according to inoculation order. The mice were treated with vehicle (0.5% MC), OX86 (a murine specific anti-OX40 antibody), Compound 1, and the combination of OX86 and Compound 1. OX86 was given at 0.4 mg/kg once a week by intraperitoneal injection, and Compound 1 was administered at 10 mg/kg twice a day by oral gavage. Tumor volume was determined twice weekly and the TGI calculated as described above.

EMT-6 cells = test: EMT-6 syngeneic breast cancer model in BALB/c mice
Experimental: EMT-6 cells are of murine breast cancer origin. Female BALB/c mice were implanted intramammary with 5×10^4 EMT-6 cells per 100 μL PBS mice in the second right papilla. After inoculation, mice were randomized into 4 groups with 25 animals in each group according to inoculation order.
The mice were treated with vehicle (0.5% MC), OX86 (a murine specific anti-OX40 antibody), Compound 1 (PI3Kdelta inhibitor), and the combination of OX86 and Compound 1, respectively. OX86 was given at 0.4 mg/kg once per week (QW) by intraperitoneal (i.p.) injection, and Compound 1 was administered at 30 mg/kg twice per day (BID) by oral gavage (p.o.). Tumor volume was determined twice weekly and tumor growth inhibition was determined using the formula described in Example 14 above.

CT26WT cells = test: CT26WT syngeneic colon carcinoma model in BALB/c mice; conditions: Compound 2A 10 mg/kg p.o.
Experimental: CT26WT cells are of colon cancer origin. Female BALB/c mice were subcutaneously implanted with 1×10^5 CT26WT cells in 100 μL PBS in the right flank. After inoculation, mice were randomized into 4 groups according to inoculation order. The mice were treated with vehicle (0.5% MC) as a control. Antibody 1A7.grl (sequence disclosed in US2015/0307617) was confirmed to bind mouse OX40 in house.
[…] Compound 2A was administered as single agent at 10 mg/kg twice a day by oral gavage. The 1A7.gr1 antibody in combination with Compound 2A was administered as combination therapy at the same doses described above for each therapeutic given as a single agent. Tumor volume was determined twice weekly, and the TGI calculated as described above.

[1] = OX86 0.4 mg/kg QW i.p., Compound 1 30 mg/kg BID p.o.

Compound	Mean Tumor Volume on Day 26 (mean ± SEM) (A20 cells; OX86 0.4 mg/kg QW i.p.) [mm^3]	Tumor Free Animals at Day 47 (A20 cells; OX86 0.4 mg/kg QW i.p.) [%]	TGI on Day 26 (A20 cells; OX86 0.4 mg/kg QW×4 i.p.) [%]	Mean Tumor Volume on Day 22 (mean ± SEM) (EMT-6 cells; [1]) [mm^3]	Tumor Free Animal (EMT-6 cells; [1]) [%]	TGI on Day 22 (EMT-6 cells; OX86 0.4 mg/kg QW×4 i.p., Compound 1 30 mg/kg BID×22 p.o.) [%]	Mean Tumor Volume on Day 25 (mean ± SEM) (CT26WT cells; 1A7.gr1 2 mg/kg QW i.p.) [mm^3]	Tumor Free Animals at Day 35 (CT26WT cells; 1A7.gr1 2 mg/kg QW i.p.) [%]	TGI on Day 25 (CT26WT cells; 1A7.gr1 2 mg/kg QW×4 i.p.) [%]
Cc1nc([C@@H](C)c2cc(Cl)c(F)c(C(=O)NCCN3CCN(C)CC3)c2OC(C)C)n2ccnc(N)c12 [Compound 1, (S)-3-(1-(8-amino-1-methylimidazo[1,5-a]pyrazin-3-yl)ethyl)-5-chloro-6-fluoro-2-isopropoxy-N-(2-(4-methylpiperazin-1-yl)ethyl)benzamide]	683.9 ± 89.7	0	7	758.1 ± 100.6	4	26			
CC(C)Oc1c([C@H](C)c2nc(Cl)c3c(N)nccn23)cc(Cl)c(F)c1-c1ccc(C(F)(F)F)nc1 [Compound 2A, 1-chloro-3-(1-(5-chloro-4-fluoro-2-isopropoxy-3-(6-(trifluoromethyl)pyridin-3-yl)phenyl)ethyl) imidazo[1,5-a]pyrazin-8-amine]							941.6 ± 207.8	7	58
